We go through 2 molecules from ChEMBL document CHEMBL4765362, “Thirty Years of HDAC Inhibitors: 2020 Insight and Hindsight” (J Med Chem, 2020).

Assay [1] deals with T1, Protein deacetylase HDAC6 (Homo sapiens, UniProt Q9UBN7).
T1 sequence (Q9UBN7 whole entry): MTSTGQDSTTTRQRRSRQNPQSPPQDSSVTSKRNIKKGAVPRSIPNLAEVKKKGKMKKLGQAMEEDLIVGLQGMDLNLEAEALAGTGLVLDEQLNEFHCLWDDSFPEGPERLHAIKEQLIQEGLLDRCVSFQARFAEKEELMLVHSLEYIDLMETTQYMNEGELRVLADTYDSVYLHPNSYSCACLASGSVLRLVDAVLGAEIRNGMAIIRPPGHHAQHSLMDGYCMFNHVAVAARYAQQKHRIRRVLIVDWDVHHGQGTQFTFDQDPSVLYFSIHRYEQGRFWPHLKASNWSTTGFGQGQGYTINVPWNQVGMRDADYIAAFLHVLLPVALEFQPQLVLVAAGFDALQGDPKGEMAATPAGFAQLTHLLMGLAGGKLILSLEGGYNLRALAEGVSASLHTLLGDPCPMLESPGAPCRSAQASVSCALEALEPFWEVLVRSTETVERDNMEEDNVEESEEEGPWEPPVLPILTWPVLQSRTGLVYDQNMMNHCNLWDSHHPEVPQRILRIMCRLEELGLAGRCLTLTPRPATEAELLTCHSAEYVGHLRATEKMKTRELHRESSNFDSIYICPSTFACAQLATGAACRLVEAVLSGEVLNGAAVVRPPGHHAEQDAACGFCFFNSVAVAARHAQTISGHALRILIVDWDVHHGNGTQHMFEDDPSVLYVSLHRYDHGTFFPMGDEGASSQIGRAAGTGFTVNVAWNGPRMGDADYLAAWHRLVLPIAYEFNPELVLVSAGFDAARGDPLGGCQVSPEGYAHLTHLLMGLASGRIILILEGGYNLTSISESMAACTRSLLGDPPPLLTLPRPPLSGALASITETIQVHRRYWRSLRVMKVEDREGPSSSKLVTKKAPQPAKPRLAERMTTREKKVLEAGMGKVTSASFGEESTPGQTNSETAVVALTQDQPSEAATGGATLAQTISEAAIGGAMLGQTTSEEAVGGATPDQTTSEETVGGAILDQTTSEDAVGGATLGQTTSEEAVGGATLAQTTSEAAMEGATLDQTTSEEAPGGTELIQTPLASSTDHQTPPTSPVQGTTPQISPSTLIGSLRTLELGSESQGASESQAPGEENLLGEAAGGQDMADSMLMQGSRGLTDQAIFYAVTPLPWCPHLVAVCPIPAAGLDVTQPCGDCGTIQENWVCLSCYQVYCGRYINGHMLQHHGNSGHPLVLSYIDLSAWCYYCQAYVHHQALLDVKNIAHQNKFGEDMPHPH
In words: Inhibition of HDAC6 (unknown origin).

For assay [2], the target named is T2, Histone deacetylase 7 (Homo sapiens, UniProt Q8WUI4).
T2 sequence (Q8WUI4 whole entry): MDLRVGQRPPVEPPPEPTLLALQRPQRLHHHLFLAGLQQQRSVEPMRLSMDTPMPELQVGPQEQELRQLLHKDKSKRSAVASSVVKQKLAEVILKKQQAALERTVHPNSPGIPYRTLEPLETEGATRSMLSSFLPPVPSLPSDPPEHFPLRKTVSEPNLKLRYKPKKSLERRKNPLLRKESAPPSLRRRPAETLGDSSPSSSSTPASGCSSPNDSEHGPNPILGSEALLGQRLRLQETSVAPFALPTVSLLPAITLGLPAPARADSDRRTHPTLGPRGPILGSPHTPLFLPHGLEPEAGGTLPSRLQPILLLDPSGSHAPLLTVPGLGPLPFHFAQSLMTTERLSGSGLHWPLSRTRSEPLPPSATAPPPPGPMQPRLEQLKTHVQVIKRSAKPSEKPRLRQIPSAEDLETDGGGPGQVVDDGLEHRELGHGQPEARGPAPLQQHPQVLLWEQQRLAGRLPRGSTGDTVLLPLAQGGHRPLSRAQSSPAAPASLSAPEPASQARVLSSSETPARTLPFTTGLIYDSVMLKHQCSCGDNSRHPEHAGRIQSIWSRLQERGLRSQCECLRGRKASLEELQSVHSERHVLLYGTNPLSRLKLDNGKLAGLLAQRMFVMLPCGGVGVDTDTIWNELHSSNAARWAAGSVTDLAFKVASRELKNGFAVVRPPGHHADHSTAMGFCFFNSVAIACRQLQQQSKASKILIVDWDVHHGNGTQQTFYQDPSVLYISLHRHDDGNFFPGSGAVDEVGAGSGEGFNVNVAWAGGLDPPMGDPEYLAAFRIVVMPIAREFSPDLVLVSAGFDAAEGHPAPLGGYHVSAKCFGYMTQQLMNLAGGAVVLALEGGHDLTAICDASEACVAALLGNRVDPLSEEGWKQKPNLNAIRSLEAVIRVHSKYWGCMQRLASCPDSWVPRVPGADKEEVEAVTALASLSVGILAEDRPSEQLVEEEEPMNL
In words: Inhibition of HDAC7 (unknown origin).

In the next assay the target is T3, Histone deacetylase 11 (Homo sapiens, UniProt Q96DB2).
T3 sequence (Q96DB2 whole entry): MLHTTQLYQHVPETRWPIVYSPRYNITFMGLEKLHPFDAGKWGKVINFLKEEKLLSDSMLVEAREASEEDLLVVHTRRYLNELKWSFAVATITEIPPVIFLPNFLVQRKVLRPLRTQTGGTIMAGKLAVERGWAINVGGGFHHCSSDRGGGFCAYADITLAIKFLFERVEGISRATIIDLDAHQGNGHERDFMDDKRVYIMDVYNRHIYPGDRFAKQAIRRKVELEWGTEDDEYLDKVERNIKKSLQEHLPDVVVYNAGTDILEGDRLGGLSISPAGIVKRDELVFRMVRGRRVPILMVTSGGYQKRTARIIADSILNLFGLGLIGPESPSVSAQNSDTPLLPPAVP
In words: Inhibition of HDAC11 (unknown origin) using p53 (379 to 382 residues)(RHKK(Ac)-AMC) as substrate by fluorescent method.

The target of a further assay is Histone deacetylase 9 (Homo sapiens, UniProt Q9UKV0). In words: Inhibition of HDAC9 (unknown origin) using HDAC class IIa substrate (trifluoroacetyl-lysine-AMC) as substrate by fluorescent method.
Chain of Histone deacetylase 9 (Q9UKV0 whole entry): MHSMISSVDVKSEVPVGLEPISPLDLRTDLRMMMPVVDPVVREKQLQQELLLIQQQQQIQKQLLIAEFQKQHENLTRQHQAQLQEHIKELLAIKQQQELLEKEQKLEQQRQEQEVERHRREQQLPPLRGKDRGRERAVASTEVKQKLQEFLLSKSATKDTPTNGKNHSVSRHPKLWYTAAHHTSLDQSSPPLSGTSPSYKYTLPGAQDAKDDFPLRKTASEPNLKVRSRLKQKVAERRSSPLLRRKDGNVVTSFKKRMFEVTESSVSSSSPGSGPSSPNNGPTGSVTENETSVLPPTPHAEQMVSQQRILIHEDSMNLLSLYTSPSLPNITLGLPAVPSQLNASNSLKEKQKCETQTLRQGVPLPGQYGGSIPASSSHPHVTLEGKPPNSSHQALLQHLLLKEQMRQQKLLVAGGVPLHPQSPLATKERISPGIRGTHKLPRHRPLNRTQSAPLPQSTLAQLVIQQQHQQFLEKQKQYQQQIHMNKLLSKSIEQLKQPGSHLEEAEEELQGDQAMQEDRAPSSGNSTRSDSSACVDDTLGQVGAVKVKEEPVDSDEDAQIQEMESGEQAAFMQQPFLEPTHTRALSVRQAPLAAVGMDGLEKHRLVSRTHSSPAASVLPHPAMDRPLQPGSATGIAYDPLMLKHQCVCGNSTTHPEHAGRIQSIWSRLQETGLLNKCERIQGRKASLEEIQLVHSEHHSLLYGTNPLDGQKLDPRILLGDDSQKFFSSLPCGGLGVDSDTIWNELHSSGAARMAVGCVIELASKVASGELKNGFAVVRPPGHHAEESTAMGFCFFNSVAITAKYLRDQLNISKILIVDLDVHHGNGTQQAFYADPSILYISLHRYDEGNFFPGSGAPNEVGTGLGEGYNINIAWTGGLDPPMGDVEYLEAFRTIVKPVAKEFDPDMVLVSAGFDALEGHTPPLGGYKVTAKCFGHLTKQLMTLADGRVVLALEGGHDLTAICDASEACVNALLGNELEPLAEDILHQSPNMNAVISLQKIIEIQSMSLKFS
In assay [3] the target is T2, Histone deacetylase 7. In words: Inhibition of HDAC7 (unknown origin) using HDAC class IIa substrate (trifluoroacetyl-lysine-AMC) as substrate by fluorescent method.

What is called IC50 is the concentration at which inhibition is half-maximal. Read a low IC50 as greater potency in that assay. Consider `CCCCCCCCCCCCCCCCNNC(=O)c1cccs1`, for which the IC50 (in assay [1]; on Histone deacetylase 7 [2]) was greater than 10 µM each time.

Regarding `Cn1cc(-c2ccc(S(=O)(=O)n3ccc(/C=C/C(=O)Nc4ccccc4N)c3)cc2)cn1` [DOMATINOSTAT], the values for the IC50 against Histone deacetylase 11, at Histone deacetylase 9 and at Histone deacetylase 7 [3] were 9.7 µM, greater than 10 µM and greater than 10 µM, respectively.
